“And” between values parts separate entries of the source, which are not always exact repeats. Identical values can stand only once. “Also recorded” adds a separate entry of the source. Like-named read-outs stand apart in the source and are kept apart here.
How the values were obtained:
CYP2B6 = target: T1, CYP2B6 (Homo sapiens, UniProt P20813); test: CYP inhibition in human liver microsomes, CYP2B6; format: in vitro ADME; conditions: HLM, marker substrate Bupropion
T1 sequence (P20813 1-491): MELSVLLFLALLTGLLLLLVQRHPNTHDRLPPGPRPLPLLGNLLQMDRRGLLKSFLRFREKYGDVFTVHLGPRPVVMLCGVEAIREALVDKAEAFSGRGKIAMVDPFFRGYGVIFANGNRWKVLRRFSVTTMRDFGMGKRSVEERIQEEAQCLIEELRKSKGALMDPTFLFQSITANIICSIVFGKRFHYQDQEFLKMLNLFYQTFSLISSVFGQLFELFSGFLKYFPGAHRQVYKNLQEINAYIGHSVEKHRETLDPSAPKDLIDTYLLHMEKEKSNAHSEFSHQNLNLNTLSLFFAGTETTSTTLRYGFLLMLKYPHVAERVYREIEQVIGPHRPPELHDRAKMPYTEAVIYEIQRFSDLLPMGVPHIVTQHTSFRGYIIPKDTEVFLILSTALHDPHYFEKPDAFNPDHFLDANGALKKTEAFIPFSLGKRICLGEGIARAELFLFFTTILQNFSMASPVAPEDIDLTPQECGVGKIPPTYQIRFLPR
Description: . The inhibition of CYP2B6 and 3A4 (when midazolam was used as the substrate) by ZB716 was not observed. The inhibitory potential of ZB716 on human CYP enzyme activities appears relatively low.
The final concentrations of ZB716 in the incubation system were 0, 0.05, 0.15, 0.5, 1.5, 5, and 15 µM (final organic solvent concentration ≤ 1%). […] . […] The concentrations of the isoform-specific metabolites derived from marker substrates were measured by UPLC–MS/MS. The IC50 values were calculated from the percentages of the rate of the metabolite formation relative to non-inhibited controls vs. the concentrations of ZB716 or positive control inhibitors. All incubations were performed in triplicate. The mean of the enzyme activity (% of non-inhibited control) for each concentration was plotted against the log inhibitor concentration, and fitted to an IC50 curve.

CYP3A5 = CYP3A5 (Homo sapiens, UniProt P20815); test: CYP phenotyping, recombinant CYP3A5
Chain of CYP3A5 (P20815 whole entry): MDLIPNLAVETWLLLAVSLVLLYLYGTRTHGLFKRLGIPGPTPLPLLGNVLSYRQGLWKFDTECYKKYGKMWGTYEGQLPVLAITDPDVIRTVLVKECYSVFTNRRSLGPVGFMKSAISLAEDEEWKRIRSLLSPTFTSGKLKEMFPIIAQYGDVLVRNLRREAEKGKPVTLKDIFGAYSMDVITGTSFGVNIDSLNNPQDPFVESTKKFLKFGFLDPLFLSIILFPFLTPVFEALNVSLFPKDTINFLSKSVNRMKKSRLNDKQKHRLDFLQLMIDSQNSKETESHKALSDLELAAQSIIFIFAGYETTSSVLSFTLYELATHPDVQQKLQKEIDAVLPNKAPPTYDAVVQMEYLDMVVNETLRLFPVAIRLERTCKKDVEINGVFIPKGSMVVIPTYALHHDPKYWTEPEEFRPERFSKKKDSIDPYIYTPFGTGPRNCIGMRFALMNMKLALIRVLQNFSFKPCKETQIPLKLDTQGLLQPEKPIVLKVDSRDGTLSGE

human hepatocytes = test: Metabolic stability in human hepatocytes; format: in vitro ADME; conditions: 1 μM
Description: (§1) Hepatocytes of humans (#X008001), dogs (#M00205), rats (#M00005), and mice (#M005052) were purchased from BioIVT, NY, USA. Monkey hepatocytes were procured from RILD, Shanghai, China. The metabolic stability of ZB716 in human, monkey, dog, rat and mouse hepatocytes was investigated by incubating ZB716 with human, monkey, dog, rat, and mouse hepatocytes (0.5 × 10^6 cells/mL), or with incubation medium only.
(§2) parent disappearance vs. incubation time curve.
(§3) Scaled-up Clint = kV/N × Scaling Factor
(§4) metabolite formed during the reaction.

[1] = Metabolic stability in human hepatocytes; format: in vitro ADME
Description: as §1, §2, §3, §4

CYP2E1 = CYP2E1 (Homo sapiens, UniProt P05181); test: CYP phenotyping, recombinant CYP2E1
Chain of CYP2E1 (P05181 whole entry): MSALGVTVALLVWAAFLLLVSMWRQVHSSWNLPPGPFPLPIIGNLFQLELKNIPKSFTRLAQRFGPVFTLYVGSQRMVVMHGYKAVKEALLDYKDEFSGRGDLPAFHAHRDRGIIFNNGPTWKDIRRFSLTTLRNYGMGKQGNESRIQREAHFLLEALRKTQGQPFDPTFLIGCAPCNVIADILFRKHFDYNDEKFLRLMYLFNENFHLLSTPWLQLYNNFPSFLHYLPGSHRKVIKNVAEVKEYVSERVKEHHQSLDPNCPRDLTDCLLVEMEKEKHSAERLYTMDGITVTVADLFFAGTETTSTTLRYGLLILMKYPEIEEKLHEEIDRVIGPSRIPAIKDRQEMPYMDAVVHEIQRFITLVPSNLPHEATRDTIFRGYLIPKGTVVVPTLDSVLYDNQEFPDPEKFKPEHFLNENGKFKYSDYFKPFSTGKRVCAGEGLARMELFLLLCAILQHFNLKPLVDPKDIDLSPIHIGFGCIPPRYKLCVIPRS

mouse hepatocytes = test: Metabolic stability in mouse hepatocytes; format: in vitro ADME; conditions: 1 μM
Description: as §1, §2, §3, §4

[2] = Metabolic stability in mouse hepatocytes; format: in vitro ADME
Description: as §1, §2, §3, §4

[3] = Single-dose PK and bioavailability of ZB716 in rats; format: in vivo; conditions: Sprague Dawley, rat, plasma; for bioavailability: PO 6 mg/kg/day vs IV 2 mg/kg/day
CYP2C8 = target: T2, CYP2C8 (Homo sapiens, UniProt P10632); test: CYP phenotyping, recombinant CYP2C8
T2 sequence (P10632 1-490): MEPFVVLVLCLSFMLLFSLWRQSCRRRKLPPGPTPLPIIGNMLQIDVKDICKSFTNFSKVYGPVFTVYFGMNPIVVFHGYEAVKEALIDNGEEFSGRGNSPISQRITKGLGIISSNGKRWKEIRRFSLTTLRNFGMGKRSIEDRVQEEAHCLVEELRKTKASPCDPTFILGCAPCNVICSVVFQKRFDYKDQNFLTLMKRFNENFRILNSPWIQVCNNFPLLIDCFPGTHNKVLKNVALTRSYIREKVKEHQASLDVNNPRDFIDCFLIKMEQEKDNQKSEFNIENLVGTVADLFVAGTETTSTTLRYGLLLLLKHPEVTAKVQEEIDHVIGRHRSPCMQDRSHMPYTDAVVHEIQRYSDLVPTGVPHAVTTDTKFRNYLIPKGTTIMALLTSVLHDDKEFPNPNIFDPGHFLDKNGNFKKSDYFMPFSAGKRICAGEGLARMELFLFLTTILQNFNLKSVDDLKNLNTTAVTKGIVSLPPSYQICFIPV

[4] = read-out: Estimated In Vitro t1/2
[5] = female, single dose, IV 2 mg/kg/day, F
[6] = female, single dose, PO 6 mg/kg/day, F
[7] = female, single dose, PO 30 mg/kg/day, F
[8] = female, single dose, PO 100 mg/kg/day, F
[9] = female, single dose, PO 400 mg/kg/day, F
[10] = male, single dose, IV 2 mg/kg/day, M
[11] = male, single dose, PO 6 mg/kg/day, M
[12] = male, single dose, PO 30 mg/kg/day, M
[13] = male, single dose, PO 100 mg/kg/day, M
[14] = male, single dose, PO 400 mg/kg/day, M

Which IC50 (CYP2B6) does the source give for `C[C@]12CC[C@@H]3c4ccc(B(O)O)cc4C[C@@H](CCCCCCCCC[S+]([O-])CCCC(F)(F)C(F)(F)F)[C@H]3[C@@H]1CC[C@@H]2O` (stereo partly drawn) [ZB716, fulvestrant-3-boronic acid] here?
The IC50 was “not observed; also recorded: No Inhibition”.

And the half-life at 2 µM (CYP3A5; human)?
The half-life at 2 µM was 2.06 ± 0.33 min.

And the Clint (CYP3A5; recombinant CYP3A5, 2 µM ZB716)?
The Clint was 6.86 µL/min/pmol CYP and 6.86 ± 1.12 µL/min/pmol CYP.

What about the “Remaining at 120 min” value (human hepatocytes) of the same compound?
Its value is 7.98 ± 0.7%.

And the half-life at 1 μM [1, 4]?
The half-life at 1 μM was 34.9 ± 1 min.

And the hepatocyte CLint at 1 μM ([1]; read-out: In Vitro Clint)?
The hepatocyte CLint at 1 μM was 39.7 ± 1.1 µL/min/1e6 cells.

And the CLint scaled at 1 μM ([1]; read-out: Scaled-Up Clint)?
The CLint scaled at 1 μM was 101 ± 3 mL/min/kg.

What about the half-life at 2 µM (CYP2E1; human) of the same compound?
Its half-life at 2 µM is 19.4 ± 1.2 min.

What about the Clint (CYP2E1; recombinant CYP2E1, 2 µM ZB716) of the same compound?
The Clint was 0.716 ± 0.044 µL/min/pmol CYP.

What about the “Remaining at 120 min” value (mouse hepatocytes) of the same compound?
The value was 6.24 ± 0.58%.

What about the half-life at 1 μM [2, 4] of the same compound?
The half-life at 1 μM was 34.4 ± 0.6 min.

What about the hepatocyte CLint at 1 μM ([2]; read-out: In Vitro Clint) of the same compound?
Its hepatocyte CLint at 1 μM is 40.3 ± 0.7 µL/min/1e6 cells.

And the CLint scaled at 1 μM ([2]; read-out: Scaled-Up Clint)?
The CLint scaled at 1 μM was 476 ± 8 mL/min/kg.

What about the Tmax ([3]; both sexes, single oral administration, mostly, post-dose, read-out: Tmax) of the same compound?
Its Tmax is 30 to 120 min.

What about the bioavailability ([3]; female, F) of the same compound?
The bioavailability was 5.98%.

And the AUC(0-t) [3, 5]?
The AUC(0-t) was 6440 ng·h/mL.

What about the Cmax [3, 5] of the same compound?
The Cmax was 4530 ng/mL.

What about the Tmax ([3]; female, single dose, IV 2 mg/kg/day, F, read-out: Tmax (median)) of the same compound?
The Tmax was 5 min.

What about the AUC(0-t) [3, 6] of the same compound?
The AUC(0-t) was 1160 ng·h/mL.

What about the Cmax [3, 6] of the same compound?
The Cmax was 347 ng/mL.

And the Tmax ([3]; female, single dose, PO 6 mg/kg/day, F, read-out: Tmax (median))?
Its Tmax is 30 min.

And the AUC(0-t) [3, 7]?
The AUC(0-t) was 15700 ng·h/mL.

What about the Cmax [3, 7] of the same compound?
The Cmax was 3520 ng/mL.

And the Tmax ([3]; female, single dose, PO 30 mg/kg/day, F, read-out: Tmax (median))?
The Tmax was 60 min.

And the AUC(0-t) [3, 8]?
The AUC(0-t) was 30500 ng·h/mL.

And the Cmax [3, 8]?
Its Cmax is 3590 ng/mL.

And the Tmax ([3]; female, single dose, PO 100 mg/kg/day, F, read-out: Tmax (median))?
The Tmax was 30 min.

And the AUC(0-t) [3, 9]?
Its AUC(0-t) is 55600 ng·h/mL.

And the Cmax [3, 9]?
The Cmax was 4310 ng/mL.

What about the Tmax ([3]; female, single dose, PO 400 mg/kg/day, F, read-out: Tmax (median)) of the same compound?
Its Tmax is 60 min.

What about the bioavailability ([3]; male, M) of the same compound?
The bioavailability was 6.36%.

What about the AUC(0-t) [3, 10] of the same compound?
The AUC(0-t) was 4910 ng·h/mL.

What about the Cmax [3, 10] of the same compound?
Its Cmax is 5370 ng/mL.

And the Tmax ([3]; male, single dose, IV 2 mg/kg/day, M, read-out: Tmax (median))?
Its Tmax is 5 min.

And the AUC(0-t) [3, 11]?
The AUC(0-t) was 936 ng·h/mL.

And the Cmax [3, 11]?
Its Cmax is 321 ng/mL.

What about the Tmax ([3]; male, single dose, PO 6 mg/kg/day, M, read-out: Tmax (median)) of the same compound?
Its Tmax is 30 min.

And the AUC(0-t) [3, 12]?
The AUC(0-t) was 5410 ng·h/mL.

And the Cmax [3, 12]?
The Cmax was 1720 ng/mL.

What about the Tmax ([3]; male, single dose, PO 30 mg/kg/day, M, read-out: Tmax (median)) of the same compound?
Its Tmax is 120 min.

And the AUC(0-t) [3, 13]?
Its AUC(0-t) is 12500 ng·h/mL.

And the Cmax [3, 13]?
The Cmax was 3010 ng/mL.

What about the Tmax ([3]; male, single dose, PO 100 mg/kg/day, M, read-out: Tmax (median)) of the same compound?
Its Tmax is 30 min.

What about the AUC(0-t) [3, 14] of the same compound?
Its AUC(0-t) is 32600 ng·h/mL.

And the Cmax [3, 14]?
Its Cmax is 2860 ng/mL.

And the Tmax ([3]; male, single dose, PO 400 mg/kg/day, M, read-out: Tmax (median))?
Its Tmax is 30 min.

What about the half-life at 2 µM (CYP2C8; human) of the same compound?
Its half-life at 2 µM is 11.1 ± 1.2 min.

And the Clint (CYP2C8; recombinant CYP2C8, 2 µM ZB716)?
Its Clint is 1.25 ± 0.14 µL/min/pmol CYP.

From article PMC8400955 (Pharmaceuticals, 2021)
